Assay results: patent publication US5663150A, “Cyclopentane-β-amino acid tripeptides” (Bayer Aktiengesellschaft, priority 1995, dated 1997)

Tested on: C. albicans
Assay: systemic mouse candidiasis, in-vivo antimycotic activity
Conditions: male CFW1 mice infected i.v. with 3×10^5 CFU C. albicans; 50 mg/kg 2 × daily p.o. for 5 days; survival up to 10th day p.i.; 10 animals per group
Procedure: Testing of in-vivo activity
The test model for antimycotic in-vivo actions used was systemic mouse candidias is:
Male CFW1 mice of weight 20 g were infected in the tail vein by injection of 3×10^5 CFU of C. albicans per animal.
Untreated control animals died completely within one week post-infectionem (p.i.) of a generalized candidiasis with granuloma formation in the kidneys. For activity testing, the preparations, dissolved in a 0.2% strength aqueous glucose-agar solution, were administered orally by stomach tube to the infected animals twice daily.
The daily doses were 2×50 mg/kg of body weight (BW), the treatment period was 5 days.
The survival rates of the treated animals were noted daily up to the 10th day p.i. In the case of the untreated control animals, no animals survived at this point.
For the preparations, 10 animals each were employed per dose and control group.

Question: With `C=C1C[C@H](NC(=O)[C@@H](NC(=O)[C@@H](N)C(C)CC)C(C)CC)[C@H](C(=O)O)C1` (relative stereo) [Example 1, (-)-1,2-cis-(2-((S)-Isoleucyl)-(S)-isoleucylamino)-4-methylenecyclopentane-1-carboxylic acid] as the molecule, how does the “Number of surviving animals” value read?
Answer: 8/10
